Assay results published in PMC8288134, “Synthesis, potential antitumor activity, cell cycle analysis, and multitarget mechanisms of novel hydrazones incorporating a 4-methylsulfonylbenzene scaffold: a molecular docking study” (Journal of Enzyme Inhibition and Medicinal Chemistry, 2021).
Like-named read-outs stand apart in the source and are kept apart here.

What was measured:
CCRF-CEM = assay: NCI antitumor screen (SRB); type: cell-based; conditions: Homo sapiens, one dose 10 µM, read-out: Growth inhibition percentage (GI%)
K-562 [1] = assay: NCI antitumor screen (SRB); type: cell-based; conditions: Homo sapiens
NCI-H226 [2] = assay: NCI antitumor screen (SRB); type: cell-based; conditions: Homo sapiens, one dose 10 µM, read-out: Growth inhibition percentage (GI%)
NCI-H460 = assay: NCI antitumor screen (SRB); type: cell-based; conditions: Homo sapiens, one dose 10 µM, read-out: Growth inhibition percentage (GI%)
HCT-116 = assay: NCI antitumor screen (SRB); type: cell-based; conditions: Homo sapiens, read-out: Growth inhibition percentage (GI%)
SNB-75 = assay: NCI antitumor screen (SRB); type: cell-based; conditions: Homo sapiens, one dose 10 µM, read-out: Growth inhibition percentage (GI%)
LOX IMVI = assay: NCI antitumor screen (SRB); type: cell-based; conditions: Homo sapiens, one dose 10 µM, read-out: Growth inhibition percentage (GI%)
UACC-62 [3] = assay: NCI antitumor screen (SRB); type: cell-based; conditions: Homo sapiens, one dose 10 µM, read-out: Growth inhibition percentage (GI%)
OVCAR-4 = assay: NCI antitumor screen (SRB); type: cell-based; conditions: Homo sapiens, one dose 10 µM, read-out: Growth inhibition percentage (GI%)
OVCAR-5 [4] = assay: NCI antitumor screen (SRB); type: cell-based; conditions: Homo sapiens, one dose 10 µM, read-out: Growth inhibition percentage (GI%)
ACHN = assay: NCI antitumor screen (SRB); type: cell-based; conditions: Homo sapiens, one dose 10 µM, read-out: Growth inhibition percentage (GI%)
CAKI-1 [5] = assay: NCI antitumor screen (SRB); type: cell-based; conditions: Homo sapiens, one dose 10 µM, read-out: Growth inhibition percentage (GI%)
RXF 393 [6] = assay: NCI antitumor screen (SRB); type: cell-based; conditions: Homo sapiens, one dose 10 µM, read-out: Growth inhibition percentage (GI%)
UO-31 = assay: NCI antitumor screen (SRB); type: cell-based, human; conditions: Homo sapiens; UO-31; one dose 10 µM; read-out: Growth inhibition percentage (GI%)
PC-3 = assay: NCI antitumor screen (SRB); type: cell-based; conditions: Homo sapiens, one dose 10 µM, read-out: Growth inhibition percentage (GI%)
MDA-MB-231/ATCC = assay: NCI antitumor screen (SRB); type: cell-based; conditions: Homo sapiens, one dose 10 µM, read-out: Growth inhibition percentage (GI%)
HS 578 T [7] = assay: NCI antitumor screen (SRB); type: cell-based; conditions: Homo sapiens, one dose 10 µM, read-out: Growth inhibition percentage (GI%)
T-47D [8] = assay: NCI antitumor screen (SRB); type: cell-based; conditions: Homo sapiens, T47D, one dose 10 µM, read-out: Growth inhibition percentage (GI%)
MDA-MB-468 = assay: NCI antitumor screen (SRB); type: cell-based; conditions: Homo sapiens, one dose 10 µM, read-out: Growth inhibition percentage (GI%)
[9] = test system: NSC lung cancer tumour cell lines; conditions: cited from earlier work; for GI50: read-out: GI50 (subpanel average), reference drugs, ref https://dtp.cancer.gov/dtpstandard/dwindex/index.jsp; for CC50: read-out: LC50 (subpanel average), reference drugs, ref https://dtp.cancer.gov/dtpstandard/dwindex/index.jsp; for TGI (subpanel average): reference drugs, ref https://dtp.cancer.gov/dtpstandard/dwindex/index.jsp
[10] = test system: colon cancer tumour cell lines; conditions: cited from earlier work; for GI50: read-out: GI50 (subpanel average), reference drugs, ref https://dtp.cancer.gov/dtpstandard/dwindex/index.jsp; for CC50: read-out: LC50 (subpanel average), reference drugs, ref https://dtp.cancer.gov/dtpstandard/dwindex/index.jsp; for TGI (subpanel average): reference drugs, ref https://dtp.cancer.gov/dtpstandard/dwindex/index.jsp
[11] = test system: ovarian cancer tumour cell lines; conditions: cited from earlier work; for GI50: read-out: GI50 (subpanel average), reference drugs, ref https://dtp.cancer.gov/dtpstandard/dwindex/index.jsp; for CC50: read-out: LC50 (subpanel average), reference drugs, ref https://dtp.cancer.gov/dtpstandard/dwindex/index.jsp; for TGI (subpanel average): reference drugs, ref https://dtp.cancer.gov/dtpstandard/dwindex/index.jsp
[12] = test system: full panel of 59 cancer cell lines; conditions: cited from earlier work; for GI50: read-out: GI50 MG-MID (full panel mean-graph midpoint), reference drugs, ref https://dtp.cancer.gov/dtpstandard/dwindex/index.jsp; for CC50: read-out: LC50 MG-MID (full panel mean-graph midpoint), reference drugs, ref https://dtp.cancer.gov/dtpstandard/dwindex/index.jsp; for TGI MG-MID (full panel mean-graph midpoint): reference drugs, ref https://dtp.cancer.gov/dtpstandard/dwindex/index.jsp
K-562 [13] = test system: K-562; set-up: method as in https://dtp.cancer.gov/dtpstandard/dwindex/index.jsp; conditions: reference drugs, ref https://dtp.cancer.gov/dtpstandard/dwindex/index.jsp; cited from earlier work
MOLT-4 = test system: MOLT-4; set-up: method as in https://dtp.cancer.gov/dtpstandard/dwindex/index.jsp; conditions: reference drugs, ref https://dtp.cancer.gov/dtpstandard/dwindex/index.jsp; cited from earlier work
HOP-62 = test system: HOP-62; set-up: method as in https://dtp.cancer.gov/dtpstandard/dwindex/index.jsp; conditions: reference drugs, ref https://dtp.cancer.gov/dtpstandard/dwindex/index.jsp; cited from earlier work
NCI-H226 [14] = test system: NCI-H226; set-up: method as in https://dtp.cancer.gov/dtpstandard/dwindex/index.jsp; conditions: reference drugs, ref https://dtp.cancer.gov/dtpstandard/dwindex/index.jsp; cited from earlier work
NCI-H23 = test system: NCI-H23; set-up: method as in https://dtp.cancer.gov/dtpstandard/dwindex/index.jsp; conditions: reference drugs, ref https://dtp.cancer.gov/dtpstandard/dwindex/index.jsp; cited from earlier work
NCI-H522 = test system: NCI-H522; set-up: method as in https://dtp.cancer.gov/dtpstandard/dwindex/index.jsp; conditions: reference drugs, ref https://dtp.cancer.gov/dtpstandard/dwindex/index.jsp; cited from earlier work
HCC-2998 = test system: HCC-2998; set-up: method as in https://dtp.cancer.gov/dtpstandard/dwindex/index.jsp; conditions: reference drugs, ref https://dtp.cancer.gov/dtpstandard/dwindex/index.jsp; cited from earlier work
IGROV1 = test system: IGROV1; set-up: method as in https://dtp.cancer.gov/dtpstandard/dwindex/index.jsp; conditions: reference drugs, ref https://dtp.cancer.gov/dtpstandard/dwindex/index.jsp; cited from earlier work
OVCAR-5 [15] = test system: OVCAR-5; set-up: method as in https://dtp.cancer.gov/dtpstandard/dwindex/index.jsp; conditions: reference drugs, ref https://dtp.cancer.gov/dtpstandard/dwindex/index.jsp; cited from earlier work
CAKI-1 [16] = test system: CAKI-1; set-up: method as in https://dtp.cancer.gov/dtpstandard/dwindex/index.jsp; conditions: reference drugs, ref https://dtp.cancer.gov/dtpstandard/dwindex/index.jsp; cited from earlier work
RXF 393 [17] = test system: RXF 393; set-up: method as in https://dtp.cancer.gov/dtpstandard/dwindex/index.jsp; conditions: reference drugs, ref https://dtp.cancer.gov/dtpstandard/dwindex/index.jsp; cited from earlier work
SN12C = test system: SN12C; set-up: method as in https://dtp.cancer.gov/dtpstandard/dwindex/index.jsp; conditions: reference drugs, ref https://dtp.cancer.gov/dtpstandard/dwindex/index.jsp; cited from earlier work
TK-10 = test system: TK-10; set-up: method as in https://dtp.cancer.gov/dtpstandard/dwindex/index.jsp; conditions: reference drugs, ref https://dtp.cancer.gov/dtpstandard/dwindex/index.jsp; cited from earlier work
DU-145 = test system: DU-145; set-up: method as in https://dtp.cancer.gov/dtpstandard/dwindex/index.jsp; conditions: reference drugs, ref https://dtp.cancer.gov/dtpstandard/dwindex/index.jsp; cited from earlier work
HL-60(TB) = test system: HL-60(TB); set-up: method as in https://dtp.cancer.gov/dtpstandard/dwindex/index.jsp; conditions: reference drugs, ref https://dtp.cancer.gov/dtpstandard/dwindex/index.jsp; cited from earlier work
UACC-62 [18] = test system: UACC-62; set-up: method as in https://dtp.cancer.gov/dtpstandard/dwindex/index.jsp; conditions: reference drugs, ref https://dtp.cancer.gov/dtpstandard/dwindex/index.jsp; cited from earlier work
HS 578 T [19] = test system: HS 578 T; set-up: method as in https://dtp.cancer.gov/dtpstandard/dwindex/index.jsp; conditions: reference drugs, ref https://dtp.cancer.gov/dtpstandard/dwindex/index.jsp; cited from earlier work
T-47D [20] = test system: T-47D; set-up: method as in https://dtp.cancer.gov/dtpstandard/dwindex/index.jsp; conditions: reference drugs, ref https://dtp.cancer.gov/dtpstandard/dwindex/index.jsp; cited from earlier work

Structure (SMILES) | inhibition at 10 µM (CCRF-CEM) [%] | inhibition at 10 µM (NCI-H226 [2]) [%] | inhibition at 10 µM (NCI-H460) [%] | inhibition at 10 µM (HCT-116) [%] | inhibition at 10 µM (SNB-75) [%] | inhibition at 10 µM (LOX IMVI) [%] | inhibition at 10 µM (UACC-62 [3]) [%] | inhibition at 10 µM (OVCAR-4) [%] | inhibition at 10 µM (OVCAR-5 [4]) [%] | CC50 [9] [µM] | TGI (subpanel average) [9] [µM] | GI50 [10] [µM] | CC50 [10] [µM] | TGI (subpanel average) [10] [µM] | GI50 [11] [µM] | CC50 [11] [µM] | TGI (subpanel average) [11] [µM] | GI50 [12] [µM] | CC50 [12] [µM] | TGI MG-MID (full panel mean-graph midpoint) [12] [µM] | other results
CS(=O)(=O)c1ccc(C(=O)N/N=C/c2ccccc2O)cc1 [Compound 16] | 84.7 | 44.8 | 85.9 | 70.9 | 22.3 | 78.6 | 83.6 | 56.3 | 35.3 |  |  |  |  |  |  |  |  |  |  |  | inhibition at 10 µM (K-562 [1]; K562, read-out: Growth inhibition percentage (GI%)): 59.5%; inhibition at 10 µM (ACHN): 71.7%; inhibition at 10 µM (CAKI-1 [5]): 65.1%; inhibition at 10 µM (RXF 393 [6]): 47%; inhibition at 10 µM (UO-31): 82%; inhibition at 10 µM (PC-3): 45.7%; inhibition at 10 µM (MDA-MB-231/ATCC): 52.6%; inhibition at 10 µM (HS 578 T [7]): 18.5%; inhibition at 10 µM (T-47D [8]): 47.6%; inhibition at 10 µM (MDA-MB-468): 35.3%
O=c1[nH]cc(F)c(=O)[nH]1 [Compound 5-Fu, 5-fluorouracil, reference compound] | 42.9 | 30.5 | 87 | 82.2 | 34.1 | 69.6 | 60.3 | 40.6 | 55.7 | > 100 | 80.45 | 0.27 | 89.3 | 51.41 | 5.17 | 92.9 | 38.36 | 0.9 | 95.6 | 43.4 | inhibition at 10 µM (K-562 [1]; K562, K-562, one dose 10 µM, read-out: Growth inhibition percentage (GI%)): 57.7%; inhibition at 10 µM (ACHN): 60.7%; inhibition at 10 µM (CAKI-1 [5]): 60.6%; inhibition at 10 µM (RXF 393 [6]): 65.7%; inhibition at 10 µM (UO-31): 58.7%; inhibition at 10 µM (PC-3): 41.8%; inhibition at 10 µM (MDA-MB-231/ATCC): 21.9%; inhibition at 10 µM (HS 578 T [7]): > 100%; inhibition at 10 µM (T-47D [8]): 43.3%; GI50 [9]: 13.6 µM
CNC(=O)c1cc(Oc2ccc(NC(=O)Nc3ccc(Cl)c(C(F)(F)F)c3)cc2)ccn1 [Sorafenib, sorafenib] |  |  |  |  |  |  |  |  |  | 49.1 | 7.99 | 2.19 | 38.1 | 7.94 | 2.89 | 71.3 | 14.43 | 2.33 | 43.1 | 9.11 | GI50 (K-562 [13]): 3.16 µM; GI50 (MOLT-4): 3.16 µM; GI50 (HOP-62): 1.99 µM; GI50 (NCI-H226 [14]): 1.99 µM; GI50 (NCI-H23): 1.99 µM; GI50 (NCI-H522): 1.99 µM; GI50 (HCC-2998): 3.16 µM; GI50 (IGROV1): 2.51 µM; GI50 (OVCAR-5 [15]): 3.16 µM; GI50 (CAKI-1 [16]): 3.16 µM; GI50 (RXF 393 [17]): 2.51 µM; GI50 (SN12C): 2.51 µM; GI50 (TK-10): 3.98 µM; GI50 (DU-145): 3.16 µM
Cc1ccc(-c2cc(C(F)(F)F)nn2-c2ccc(S(N)(=O)=O)cc2)cc1 [Celecoxib, celecoxib] |  |  |  |  |  |  |  |  |  | 67.1 | 41.93 | 20.7 | 66.5 | 41.39 | 17.1 | 65.9 | 34.20 | 17.5 | 63.3 | 34.0 | GI50 (HL-60(TB)): 15.8 µM; GI50 (K-562 [13]): 10 µM; GI50 (MOLT-4): 15.8 µM; GI50 (HOP-62): 63.1 µM; GI50 (NCI-H23): 15.8 µM; GI50 (HCC-2998): 15.8 µM; GI50 (UACC-62 [18]): 15.8 µM; GI50 (IGROV1): 15.8 µM; GI50 (OVCAR-5 [15]): 19.9 µM; GI50 (CAKI-1 [16]): 19.9 µM; GI50 (RXF 393 [17]): 15.8 µM; GI50 (SN12C): 15.8 µM; GI50 (TK-10): 19.9 µM; GI50 (DU-145): 15.8 µM; GI50 (HS 578 T [19]): 19.9 µM; GI50 (T-47D [20]): 15.8 µM; GI50 [9]: 25.1 µM
